Measurements reported in ChEMBL document CHEMBL3885881, “DrugMatrix”.

Species: Rattus norvegicus
Test: DrugMatrix - Regimen: Daily Repeat
Assay type: toxicity, organism-based, Sprague-Dawley
Set-up: regimen Daily Repeat, gender Male, age 6-8 weeks
Settings: in vivo, po, route oral GAVAGE, vehicle 100 % WATER; for ABSOLUTE BASOPHIL / ABSOLUTE EOSINOPHIL / ABSOLUTE LYMPHOCYTE / ABSOLUTE MONOCYTE / ABSOLUTE SEGMENTED NEUTROPHIL / BASOPHIL / EOSINOPHIL / ERYTHROCYTE COUNT / HEMATOCRIT / HEMOGLOBIN / LEUKOCYTE COUNT / LYMPHOCYTE / MEAN CORPUSCULAR HEMOGLOBIN / MEAN CORPUSCULAR HEMOGLOBIN CONCENTRATION / MEAN CORPUSCULAR VOLUME / MONOCYTE / NEUTROPHIL / NUCLEATED RED BLOOD CELLS / PLATELET COUNT: tissue Blood; for ALANINE AMINOTRANSFERASE / ALBUMIN / ALKALINE PHOSPHATASE / ASPARTATE AMINOTRANSFERASE / BLOOD UREA NITROGEN / CARBON DIOXIDE / CHLORIDE / CHOLESTEROL / CREATINE PHOSPHOKINASE / CREATININE / GLUCOSE / LACTATE DEHYDROGENASE / LIPASE / PHOSPHORUS / POTASSIUM / SODIUM / TOTAL BILIRUBIN / TOTAL PROTEIN / URIC ACID: tissue Plasma
[1] = 28 mg/kg, 120 h, dose level Low, time 5 day
[2] = 100 mg/kg, 72 h, dose level High, time 3 day
[3] = 100 mg/kg, 120 h, dose level High, time 5 day

## Cn1cc[nH]c1=S [METHIMAZOLE]
[1]
  ABSOLUTE BASOPHIL: 0 CELLS/uL
  ABSOLUTE EOSINOPHIL: 0 CELLS/uL
  ABSOLUTE LYMPHOCYTE: 6311.33 CELLS/uL
  ABSOLUTE MONOCYTE: 62 CELLS/uL
  ABSOLUTE SEGMENTED NEUTROPHIL: 560 CELLS/uL
  BASOPHIL: 0%
  EOSINOPHIL: 0%
  ERYTHROCYTE COUNT: 5.37 x10E6/uL
  HEMATOCRIT: 33.8%
  HEMOGLOBIN: 13.17 G/DL
  LEUKOCYTE COUNT: 6.93 x10E3/uL
  LYMPHOCYTE: 90.67%
  MEAN CORPUSCULAR HEMOGLOBIN: 24.57 pg
  MEAN CORPUSCULAR HEMOGLOBIN CONCENTRATION: 38.93 G/DL
  MEAN CORPUSCULAR VOLUME: 63.03 fL
  MONOCYTE: 0.67%
  NEUTROPHIL: 8.67%
  NUCLEATED RED BLOOD CELLS: 0.33 /100WBC
  PLATELET COUNT: 1274.33 x10E3/uL
  ALANINE AMINOTRANSFERASE: 41.33 u/L
  ALBUMIN: 4.13 G/DL
  ALKALINE PHOSPHATASE: 368.67 u/L
  ASPARTATE AMINOTRANSFERASE: 68.67 u/L
  BLOOD UREA NITROGEN: 19.67 mg/dL
  CARBON DIOXIDE: 30.33 mmol/L
  CHLORIDE: 101 MEQ/L
  CHOLESTEROL: 101.33 mg/dL
  CREATINE PHOSPHOKINASE: 173 u/L
  CREATININE: 0.18 mg/dL
  GLUCOSE: 143.67 mg/dL
  LACTATE DEHYDROGENASE: 143.67 u/L
  LIPASE: 9 u/L
  PHOSPHORUS: 10.27 mg/dL
  POTASSIUM: 4.87 MEQ/L
  SODIUM: 144.47 MEQ/L
  TOTAL BILIRUBIN: 0.17 mg/dL
  TOTAL PROTEIN: 6.43 G/DL
  URIC ACID: 0.53 mg/dL
[2]
  ABSOLUTE BASOPHIL: 0 CELLS/uL
  ABSOLUTE EOSINOPHIL: 0 CELLS/uL
  ABSOLUTE LYMPHOCYTE: 13500.67 CELLS/uL
  ABSOLUTE MONOCYTE: 119.33 CELLS/uL
  ABSOLUTE SEGMENTED NEUTROPHIL: 980 CELLS/uL
  BASOPHIL: 0%
  EOSINOPHIL: 0%
  ERYTHROCYTE COUNT: 5.56 x10E6/uL
  HEMATOCRIT: 35.97%
  HEMOGLOBIN: 14.1 G/DL
  LEUKOCYTE COUNT: 14.6 x10E3/uL
  LYMPHOCYTE: 92.67%
  MEAN CORPUSCULAR HEMOGLOBIN: 25.4 pg
  MEAN CORPUSCULAR HEMOGLOBIN CONCENTRATION: 39.2 G/DL
  MEAN CORPUSCULAR VOLUME: 64.73 fL
  MONOCYTE: 1%
  NEUTROPHIL: 6.33%
  NUCLEATED RED BLOOD CELLS: 0.67 /100WBC
  PLATELET COUNT: 1423.33 x10E3/uL
  ALANINE AMINOTRANSFERASE: 46.33 u/L
  ALBUMIN: 4.03 G/DL
  ALKALINE PHOSPHATASE: 326.67 u/L
  ASPARTATE AMINOTRANSFERASE: 72 u/L
  BLOOD UREA NITROGEN: 11 mg/dL
  CARBON DIOXIDE: 26 mmol/L
  CHLORIDE: 103 MEQ/L
  CHOLESTEROL: 84.67 mg/dL
  CREATINE PHOSPHOKINASE: 581 u/L
  CREATININE: 0.17 mg/dL
  GLUCOSE: 154.33 mg/dL
  LACTATE DEHYDROGENASE: 228.33 u/L
  LIPASE: 9 u/L
  PHOSPHORUS: 11.6 mg/dL
  POTASSIUM: 6.41 MEQ/L
  SODIUM: 143.17 MEQ/L
  TOTAL BILIRUBIN: 0.17 mg/dL
  TOTAL PROTEIN: 5.97 G/DL
  URIC ACID: 1.63 mg/dL
[3]
  ABSOLUTE BASOPHIL: 0 CELLS/uL
  ABSOLUTE EOSINOPHIL: 40.33 CELLS/uL
  ABSOLUTE LYMPHOCYTE: 11963 CELLS/uL
  ABSOLUTE MONOCYTE: 169.33 CELLS/uL
  ABSOLUTE SEGMENTED NEUTROPHIL: 727.33 CELLS/uL
  BASOPHIL: 0%
  EOSINOPHIL: 0.33%
  ERYTHROCYTE COUNT: 5.44 x10E6/uL
  HEMATOCRIT: 33.7%
  HEMOGLOBIN: 13.17 G/DL
  LEUKOCYTE COUNT: 12.9 x10E3/uL
  LYMPHOCYTE: 93%
  MEAN CORPUSCULAR HEMOGLOBIN: 24.23 pg
  MEAN CORPUSCULAR HEMOGLOBIN CONCENTRATION: 39.1 G/DL
  MEAN CORPUSCULAR VOLUME: 61.97 fL
  MONOCYTE: 1.33%
  NEUTROPHIL: 5.33%
  NUCLEATED RED BLOOD CELLS: 0 /100WBC
  PLATELET COUNT: 1288.67 x10E3/uL
  ALANINE AMINOTRANSFERASE: 33.33 u/L
  ALBUMIN: 3.97 G/DL
  ALKALINE PHOSPHATASE: 316.33 u/L
  ASPARTATE AMINOTRANSFERASE: 51.33 u/L
  BLOOD UREA NITROGEN: 17.33 mg/dL
  CARBON DIOXIDE: 21 mmol/L
  CHLORIDE: 104.67 MEQ/L
  CHOLESTEROL: 79.67 mg/dL
  CREATINE PHOSPHOKINASE: 460 u/L
  CREATININE: 0.19 mg/dL
  GLUCOSE: 165.33 mg/dL
  LACTATE DEHYDROGENASE: 433 u/L
  LIPASE: 11.33 u/L
  PHOSPHORUS: 10.1 mg/dL
  POTASSIUM: 5.88 MEQ/L
  SODIUM: 143.5 MEQ/L
  TOTAL BILIRUBIN: 0.2 mg/dL
  TOTAL PROTEIN: 6.17 G/DL
  URIC ACID: 1.43 mg/dL
